Laboratory results from a melting point compilation (Tetko et al.; mined from patent text by program, amines drawn as free bases though some values may be those of a salt).

Row | SMILES | melting point [°C]
1 | CCOCc1nc2c(N)nc3cc(OCCCCCCNS(C)(=O)=O)ccc3c2n1CC(C)(C)NC(=O)NC(C)C | 190 to 194
2 | C=CCNC(=O)ON=C1CCOc2ccccc21 | 83 to 86
3 | OC1CCCc2nc3ccccc3c(NCCCC(c3ccccc3)c3ccccc3)c21 (centres undefined) | 147 to 148
4 | Cc1cccc(-n2cc(CC(=O)O)c(-c3ccc(Cl)cc3)n2)c1 | 129 to 130
5 | CCOC=Nn1c(NC)n[nH]c1=O | 169
6 | O=C1C=CC2=CN=C(C3CCCCC3)N3CCC(=C23)N1 | 265 to 266
7 | Clc1ccc(COC(CNc2ccc(Cl)c(Cl)c2)Cn2ccnc2)c(Cl)c1 (centres undefined) | 116 to 117
8 | CC1(C)CC(=O)Nc2ccc(Br)cc21 | 176 to 179
9 | COC(=O)Cc1ccc(CNC(=O)C2Cc3c(OC)cccc3N2S(=O)(=O)c2ccc(-c3cccc(C(F)(F)F)c3)cc2)cc1 (centres undefined) | 80
10 | CC#CCOc1ccc(S(=O)(=O)N(Cc2cccnc2)C(CSCc2ccccc2)C(=O)NO)cc1 (centres undefined) | 74 to 78
11 | CCCCc1ccc(N)c(C(=O)C(=O)OC(=O)C(=O)c2cc(CCCC)ccc2N)c1 | 218 to 220
12 | CCOc1nn(Cc2ccnc(OCc3cn4c(Cl)cccc4n3)c2)cc1CCC(=O)O | 160 to 161
13 | CCCC(=O)OCOC(=O)C1=C(C)NC(C)=C(C(=O)OC)C1c1cccc(Cl)c1Cl (centres undefined) | 128 to 129
14 | O=C(Nc1ccc(-c2ccc(C(=O)N3CCN4CCC3CC4)o2)cc1)Nc1cccc(F)c1 | 230
15 | Cc1cc(N(C)CC(=O)N2CCN(Cc3ccc4c(c3)OCO4)CC2)ccc1Oc1ccc([N+](=O)[O-])cn1 | 142 to 143
16 | Cc1oc(-c2ccccc2)nc1CCOc1ccc(CNO)cc1 | 99 to 102
17 | CC(C)n1c2c(c3cccc(F)c31)C(=O)NCC2 | 183 to 184
18 | CCCC(=O)c1cc2c(cc1C)NC(=O)C2(O)C(=O)OCC (centres undefined) | 180 to 181
19 | COc1ccc(-c2[nH]nc3c2C(=O)c2c(NC(=O)N[C@@H]4CCCC[C@@H]4N)cccc2-3)cc1 (relative stereo) | > 300
20 | O=c1[nH]c2ccccc2n1C1=CCN(C2C=CC(c3ccc(F)cc3)(c3ccc(F)cc3)CC2)CC1 (centres undefined) | 200 to 202
21 | COc1cc2c(cc1OC)CN(c1cc(N)c3cc(OC)c(OC)cc3n1)CC2 | 226 to 227
22 | Nc1cccc(Oc2ccc(Cl)nn2)c1 | 76 to 77
23 | Cc1cccc(C)c1NC(=O)c1ccc(N)cc1 | 212 to 215
24 | CC1N=C2N(Cc3ccc(Cl)cc3)c3[nH]cnc3C(=O)N2C1C (centres undefined) | 252 to 254
25 | CC(=O)Nc1c(F)ccc2nc(C)ccc12 | 232 to 235
26 | N#CCCCCN1C(=NCCCn2ccnc2)c2cccc3cccc1c23 | 76 to 78.5

Row | SMILES | melting point [°C]
27 | Cn1c(C(F)(F)F)ccc(-c2cc(S(C)(=O)=O)c(Cl)cc2F)c1=O | 144 to 145
28 | CCC(C)(C)Nc1c(NCc2cc(Cl)ccc2Cl)c(=O)c1=O | 195 to 196
29 | CCOc1cc([N+](=O)[O-])ccc1C(O)c1cc(C)ccn1 (centres undefined) | 114 to 115
30 | O=S(=O)(c1ccc(O)c(Br)c1)N1c2ccc(Br)cc2-c2ccccc2C1c1ccccc1 (centres undefined) | 237 to 239
31 | COc1ccc(Cl)n2nc(S(=O)(=O)Cl)nc12 | 149 to 151
32 | N#CC(C(=O)Nc1ccc(S(=O)(=O)C(F)(F)F)cc1)=C(O)C1CC1 | 168 to 170
33 | CCc1c(C(=O)C(N)=O)c2c(OCC(=O)O)cccc2n1Cc1ccccc1 | 230 to 234
34 | Brc1cccc(Sc2ncccc2OCCCc2cccnc2)c1 | 75 to 76
35 | CCC1CN(c2nc(C)nc(NC)n2)c2ccccc21 (centres undefined) | 168 to 170
36 | CC[C@@]1(C=O)CCCN(CCc2c[nH]c3ccc(F)cc23)C1=O | 116
37 | COc1ccc(CSc2nnc(-c3ccc4occc4c3)o2)cc1F | 134 to 136
38 | O=c1oc(-c2c(F)cccc2F)nn1-c1ccccc1Br | 111 to 114
39 | O=[N+]([O-])C=Cc1ccsc1 | 94.5 to 96.5
40 | CCCCCCCCCCCCCCC(=O)C(=O)NC(C=CC(=O)OC)CCCC (centres undefined) | 48 to 50
41 | COC(=O)c1cccc2c(=O)c3c(I)cccc3[nH]c12 | 239 to 241
42 | CC(C)(C)C(=O)N(O)Cc1ccccc1Cl | 100 to 102
43 | N#Cc1cc(C#N)cc(Oc2c(C3CC3)n[nH]c2C2CC2)c1 | 168 to 170
44 | O=C1C=CC(O)(c2ccccc2)C=C1 | 102 to 103
45 | CCCN=C(N)Nc1ccnc(OCCCO)n1 | 183 to 184
46 | CCOC(=O)Nc1nc2ccccc2c2c1nc(CC)n2CCCCNS(C)(=O)=O | 185 to 187
47 | CCOC(=O)c1c(CCN(CC)CC)nc2cc(OC)c(OC)cc2c1-c1ccc(OC)c(OC)c1 | 76 to 78
48 | COc1ccc(-c2noc3ccsc23)cc1 | 93 to 94
49 | COc1cccc(NC(=O)c2ccc(C)cc2)c1C(C)=O | 48
50 | CC1(C)Oc2ccc(I)cc2[C@@H](N2Cc3ccccc3C2=O)[C@@H]1O (relative stereo) | 224 to 228
51 | CC(C)CCOc1c(-c2ccc(S(C)(=O)=O)cc2)cnn(CC(F)(F)F)c1=O | 111 to 113
52 | C=Cc1cc(O)cc2nc(-c3ccc(O)cc3)oc12 | 249 to 250

Row | SMILES | melting point [°C]
53 | Cc1cc(OC2CCCCO2)c(C)cc1OCCCC(C)(C)C(=O)O (centres undefined) | 122 to 124
54 | COc1cccc(Nc2ccnc(Nc3cc(C)c(OC)c(OC)c3)n2)c1 | 66 to 68
55 | N#Cc1c[nH]cc1-c1cccc(F)c1 | 140 to 142
56 | CCc1c(C(=O)C(N)=O)c2ccsc2n1Cc1ccccc1 | 90 to 92
57 | COc1ccc(CNc2nc(SC)ncc2C(O)c2nccn2C)cc1Cl (centres undefined) | 179 to 180
58 | O=C1OC(=O)c2cc(Oc3ccc(-c4ccccc4)cc3)ccc21 | 199
59 | Cc1cccc(-c2nccc(-c3ccccc3C)n2)n1 | 119
60 | O[C@@H](CNCCOc1ccc2oc(-c3noc(C(F)(F)F)n3)cc2c1)COc1ccccc1 | 108 to 113
61 | NN(Cc1ccccc1[N+](=O)[O-])c1ccccc1 | 67 to 69
62 | O=C(Nc1ccc2cc(CN3CCCC3)cnc2c1F)c1ccc(-c2ccc(Cl)cc2)cc1F | 208
63 | CN1CC(CCCl)Cc2ncccc2C1=S (centres undefined) | 110 to 120
64 | Cc1ccc(-c2nc(C)nn2-c2ccc(S(N)(=O)=O)cc2)cc1 | 248 to 249
65 | COc1cc(C=Cc2ccccc2)ccc1OCC(O)CCCc1cccnc1 (centres undefined) | 110 to 111
66 | COc1ccc(CC(N)=O)cc1C(=O)NCc1ccc(C(F)(F)F)cc1 | 192 to 193
67 | O=C1c2cccc(-c3ccc(C(F)(F)F)cc3)c2CC1Br (centres undefined) | 94 to 97
68 | COc1cc2c3c(cccc3c1)C(=O)c1ccccc1-2 | 168 to 169
69 | CCC(O)(CC)c1cc(C)c(-c2cc(OCc3ccc(CO)c(CO)c3)ccc2C)c(C)c1 | 128
70 | NS(=O)(=O)c1ccc(CO)s1 | 70 to 71
71 | O=C1CCC(c2ccc(CO)cc2)CC1 | 58 to 60
72 | Cc1ccc2c([nH]c(=O)n3c(=O)[nH]nc23)c1C | 380 to 382
73 | CCCOc1ccccc1-c1nc(O)cc(CC)n1 | 97 to 98.5
74 | COC(=O)C(C#N)CC(=O)c1ccc(Cl)cc1 (centres undefined) | 75 to 79
75 | Cc1cc2ncccc2[nH]1 | 193 to 195
76 | O=C1c2ccccc2C(=O)N1CC1=Nc2ccccc2N(Cc2ccccc2)C(=O)C1 | 186
77 | OCC1Oc2ccccc2OC1CO (centres undefined) | 119 to 120
78 | O=C1N(Cc2cccc(C(F)(F)F)c2)c2ccccc2C12COc1cc3c(cc12)OCCO3 (centres undefined) | 131 to 134

Row | SMILES | melting point [°C]
79 | O=C(Nc1cccc2cc(C(=O)N3CCCCC3)[nH]c12)c1cccs1 | 131 to 132
80 | O=C1C2=C(CCCC2)C(=O)N1c1ccc(Cl)c2c1CC(CBr)O2 (centres undefined) | 134 to 136
81 | CCOC(=O)c1n[nH]c(C)c1Cl | 106 to 107
82 | COc1cc2ncn(CCCCl)c(=O)c2cc1OC | 143
83 | CCCCCCCCNC(=O)CCBr | 48 to 55
84 | Nc1nc2ccccc2c2c1nc(O)n2Cc1cccnc1 | > 250
85 | COCC(O)c1nc2cc(Cl)ccc2c(O)c1C(=O)Nc1nccs1 (centres undefined) | > 270
86 | COCCc1nc2c(N)nc3cc(-c4cccnc4)ccc3c2n1CC(C)(C)O | 158 to 160
87 | C/C(=C(\C#N)C(N)=S)N1CCCCCC1 | 158 to 161
88 | CCOC(=O)c1cc2c(=O)c3cc(C(C)(C)O)ccc3oc2nc1N | 263 to 264
89 | COC(=O)[C@@H]1Cc2cc(Cl)c(Cl)cc2[C@@H](NC(N)=O)C1 (relative stereo) | 227 to 229
90 | c1ccc2cc(-c3nc(COc4ccc(CCCn5ccnc5)cc4)co3)ccc2c1 | 131 to 132
91 | C=CCC(C)(C)C(NC(=O)c1ccc(Cl)cc1)NC(=N[N+](=O)[O-])Nc1cccnc1 (centres undefined) | 200 to 203
92 | Cn1cc(C(F)(F)F)c(C(=O)O)n1 | 174 to 175
93 | Cc1ccn(-c2ccc(C(=O)O)c(Cl)c2)n1 | 192 to 193
94 | O=C1CCCC2=C1C(c1cccc(Br)c1)C1=C(CCCC1)N2 (centres undefined) | 258 to 260
95 | COc1ccc(C)cc1NC(=O)Nc1ccc(N2CCN(C(=O)OC(C)(C)C)C(C)C2)cc1 (centres undefined) | 167 to 168
96 | c1ccc2c(c1)CC(CN1CCN(c3ccc4ccoc4c3)CC1)C2 | 168 to 170
97 | CC(C)(C)N(NC(=O)c1ccccc1)C(=O)c1ccncc1 | > 210
98 | COc1cc(-c2ccc(-c3ccc(N=Nc4ccccn4)c(OC)c3)o2)ccc1N=Nc1ccccn1 | 212 to 213
99 | NCCSc1ccc(CCC(=O)O)cc1 | 90 to 110
100 | CCCCn1c(=O)c(NC(=O)Nc2c(C(C)C)cc(CN)cc2C(C)C)c(-c2cccc(OC)c2)c2cccnc21 | 186 to 187
101 | O=C1NC(=O)c2ccc(Br)cc2/C1=C/N1CCN(CCN2CCOCC2)CC1 | 156
102 | O=C1c2ccccc2C(=O)N1c1ccc(Cl)cn1 | 153 to 155
103 | FC1CN(C(c2ccccc2)c2ccccc2)C1 | 154 to 156
104 | CC1(C)NC(=S)NC1=S | 144
